Measured values published in ChEMBL document CHEMBL6120947, “Synthesis and Antiosteoporotic Characterization of Diselenyl Maleimides: Discovery of a Potent Agent for the Treatment of Osteoporosis by Targeting RANKL” (J Med Chem, 2024).
The source made the active and inactive calls. The calls are words filed in the database; no cut-off is given here.

Legend:
BMDM [1] = assay: Inhibition of osteoclastogenesis in M-CSF/RANKL-induced osteoclast differentiation in C57BL/6J mouse BMDM cells assessed as reduction in c-Fos mRNA level measured after 5 days by qRT-PCR analysis; assay type: functional, cell-based; conditions: dose <= 2.0 µM, time 5.0 day
MC3T3-E1 [2] = assay: Effect on osteoblast differentiation in mouse MC3T3-E1 cells assessed as change in BMP2 level at 0.5 to 2 uM incubated for 7 days by Western blot analysis; assay type: functional, cell-based; conditions: dose 0.5-2 µM, time 7.0 day
Mus musculus [3] = assay: Anti-osteoporosis effect in OVX-induced osteoporosis C57BL/6 mouse model assessed as increase in Tb.N value at 10 mg/kg, po administered every other day for 8 weeks by micro-CT analysis; assay type: functional, organism-based
BMDM [4] = assay: Inhibition of osteoclastogenesis in M-CSF/RANKL-induced osteoclast differentiation in C57BL/6J mouse BMDM cells assessed as reduction in c-Fos level measured after 5 days by Western blot analysis; assay type: functional, cell-based; conditions: dose <= 2.0 µM, time 5.0 day
[5] = Cytotoxicity against C57BL/6J mouse BMDM cells assessed as decrease in cell viability at 20 uM incubated for 48 hrs by MTT assay; assay type: toxicity, cell-based
[6] = Inhibition of C57BL/6 mouse T cell proliferation upto 2 uM incubated for 5 days by APC-Annexin V staining based analysis; assay type: toxicity; conditions: 120 h, time 5 day
BMDM [7] = assay: Inhibition of osteoclastogenesis in M-CSF/RANKL-induced osteoclast differentiation in C57BL/6J mouse BMDM cells assessed as decrease in c-Fos mRNA level at 1 uM measured for 5 days by qRT-PCR analysis; assay type: functional, cell-based; conditions: time 5.0 day
MC3T3-E1 [8] = assay: Effect on osteoblast differentiation in mouse MC3T3-E1 cells assessed as change in Runx2 mRNA level at 0.5 to 2 uM incubated for 7 days by qRT-PCR analysis; assay type: functional, cell-based; conditions: dose 0.5-2 µM, time 7.0 day
[9] = Toxicity in OVX-induced osteoporosis C57BL/6 mouse model assessed as pathological change in kidney at 10 mg/kg, po administered every other day for 8 weeks by H and E staining based analysis; assay type: organism-based; conditions: in vivo, 1344 h
MC3T3-E1 [10] = assay: Effect on osteoblast differentiation in mouse MC3T3-E1 cells assessed as change in ALP level at 0.5 to 2 uM incubated for 7 days by inverted microscopy; assay type: functional, cell-based; conditions: dose 0.5-2 µM, time 7.0 day
BMDM [11] = assay: Inhibition of osteoclastogenesis in M-CSF/RANKL-induced osteoclast differentiation in C57BL/6J mouse BMDM cells assessed as reduction in bone resorption area measured after 6 days by hydroxyapatite resorption assay; assay type: functional, cell-based; conditions: dose <= 2.0 µM, time 6.0 day
[12] = Toxicity in OVX-induced osteoporosis C57BL/6 mouse model assessed as pathological change in heart at 10 mg/kg, po administered every other day for 8 weeks by H and E staining based analysis; assay type: organism-based; conditions: in vivo, 1344 h
BMDM [13] = assay: Inhibition of osteoclastogenesis in M-CSF/RANKL-induced osteoclast differentiation in C57BL/6J mouse BMDM cells assessed as reduction in I-kappaB-alpha phosphorylation at 1 uM measured upto 60 mins by Western blot analysis; assay type: functional, cell-based
Mus musculus [14] = assay: Anti-osteoporosis effect in OVX-induced osteoporosis C57BL/6 mouse model assessed as improvement of bone surface in femur at 10 mg/kg, po administered every other day for 8 weeks by H and E staining based analysis; assay type: functional, organism-based
MC3T3-E1 [15] = assay: Effect on osteoblast differentiation in mouse MC3T3-E1 cells assessed as change in ALP mRNA level at 0.5 to 2 uM incubated for 7 days by qRT-PCR analysis; assay type: functional, cell-based; conditions: dose 0.5-2 µM, time 7.0 day
BMDM [16] = assay: Inhibition of osteoclastogenesis in M-CSF/RANKL-induced osteoclast differentiation in C57BL/6J mouse BMDM cells assessed as reduction in I-kappaB-alpha degradation at 1 uM measured upto 60 mins by Western blot analysis; assay type: functional, cell-based
MC3T3-E1 [17] = assay: Cytotoxicity against mouse MC3T3-E1 cells at 0.5 to 2 uM incubated for 7 days by MTT assay; assay type: toxicity, cell-based; conditions: mc3t3-e1, 168 h, dose 0.5-2 µM, time 7 day
BMDM [18] = assay: Inhibition of osteoclastogenesis in M-CSF/RANKL-induced osteoclast differentiation in C57BL/6J mouse BMDM cells assessed as reduction in NFATc1 mRNA level measured after 5 days by qRT-PCR analysis; assay type: functional, cell-based; conditions: dose <= 2.0 µM, time 5.0 day
Mus musculus [19] = assay: Anti-osteoporosis effect in OVX-induced osteoporosis C57BL/6 mouse model assessed as decrease in Tb.Sp value at 10 mg/kg, po administered every other day for 8 weeks by micro-CT analysis; assay type: functional, organism-based
BMDM [20] = assay: Inhibition of osteoclastogenesis in M-CSF/RANKL-induced osteoclast differentiation in C57BL/6J mouse BMDM cells assessed as decrease in NFATc1 level at 1 uM measured for 5 days by Western blot analysis; assay type: functional, cell-based; conditions: time 5.0 day
BMDM [21] = assay: Inhibition of osteoclastogenesis in M-CSF/RANKL-induced osteoclast differentiation in C57BL/6J mouse BMDM cells assessed as reduction in MMP-9 level measured after 5 days by Western blot analysis; assay type: functional, cell-based; conditions: dose <= 2.0 µM, time 5.0 day
MC3T3-E1 [22] = assay: Effect on osteoblast differentiation in mouse MC3T3-E1 cells assessed as change in collagen I level at 0.5 to 2 uM incubated for 7 days by Western blot analysis; assay type: functional, cell-based; conditions: dose 0.5-2 µM, time 7.0 day
BMDM [23] = assay: Inhibition of osteoclastogenesis in M-CSF/RANKL-induced osteoclast differentiation in C57BL/6J mouse BMDM cells assessed as reduction in cathepsin K mRNA level measured after 5 days by qRT-PCR analysis; assay type: functional, cell-based; conditions: dose <= 2.0 µM, time 5.0 day
BMDM [24] = assay: Inhibition of osteoclastogenesis in M-CSF/RANKL-induced osteoclast differentiation in C57BL/6J mouse BMDM cells assessed as reduction in DC-STAMP mRNA level measured after 5 days by qRT-PCR analysis; assay type: functional, cell-based; conditions: dose <= 2.0 µM, time 5.0 day
Mus musculus [25] = assay: Anti-osteoporosis effect in OVX-induced osteoporosis C57BL/6 mouse model assessed as increase in BV/TV value at 10 mg/kg, po administered every other day for 8 weeks by micro-CT analysis; assay type: functional, organism-based
BMDM [26] = assay: Inhibition of osteoclastogenesis in M-CSF/RANKL-induced osteoclast differentiation in C57BL/6J mouse BMDM cells assessed as suppression of osteoclast size measured after 7 days by F-actin ring-TRITC phalloidin staining based analysis; assay type: functional, cell-based; conditions: dose <= 2.0 µM, time 7.0 day
BMDM [27] = assay: Inhibition of osteoclastogenesis in M-CSF/RANKL-induced osteoclast differentiation in C57BL/6J mouse BMDM cells assessed as reduction in NFATc1 level measured after 5 days by Western blot analysis; assay type: functional, cell-based; conditions: dose <= 2.0 µM, time 5.0 day
[28] = target: T1, Tumor necrosis factor ligand superfamily member 11 (Homo sapiens, UniProt O14788); assay: Binding affinity to CM5 sensor chip-immobilized RANKL (unknown origin) assessed as dissociation constant by SPR analysis
T1 sequence (O14788 whole entry): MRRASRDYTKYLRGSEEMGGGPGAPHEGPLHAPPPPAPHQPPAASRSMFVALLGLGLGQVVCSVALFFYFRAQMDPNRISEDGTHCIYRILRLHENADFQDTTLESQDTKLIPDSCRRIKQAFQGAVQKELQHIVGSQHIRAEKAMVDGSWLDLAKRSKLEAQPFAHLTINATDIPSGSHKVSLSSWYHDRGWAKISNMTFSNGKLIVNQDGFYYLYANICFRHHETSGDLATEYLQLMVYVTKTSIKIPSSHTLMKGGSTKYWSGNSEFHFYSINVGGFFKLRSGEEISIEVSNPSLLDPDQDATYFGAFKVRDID

O=C1C([Se]c2ccccc2)=C([Se]c2ccccc2)C(=O)N1Cc1ccccc1
inhibition (BMDM [1]): Dose-dependent-effect
Activity (MC3T3-E1 [2]): No effect
Activity (Mus musculus [3]): Active; Displayed Similar Effect With That Exhibited By Alendronate
inhibition (BMDM [4]): Dose-dependent-effect
Activity [5]: Non-toxic
Activity [6]: Non-toxic
inhibition (BMDM [7]): Active
Activity (MC3T3-E1 [8]): No effect
Activity [9]: Non-toxic
Activity (MC3T3-E1 [10]): No effect
inhibition (BMDM [11]): Dose-dependent-effect
Activity [12]: Non-toxic
inhibition (BMDM [13]): Active
Activity (Mus musculus [14]): Active; Displayed Similar Effect With That Exhibited By Alendronate
Activity (MC3T3-E1 [15]): No effect
inhibition (BMDM [16]): Active
Activity (MC3T3-E1 [17]): Non-toxic
inhibition (BMDM [18]): Dose-dependent-effect
Activity (Mus musculus [19]): Active; Displayed Similar Effect With That Exhibited By Alendronate
inhibition (BMDM [20]): Active
inhibition (BMDM [21]): Dose-dependent-effect
Activity (MC3T3-E1 [22]): No effect
inhibition (BMDM [23]): Dose-dependent-effect
inhibition (BMDM [24]): Dose-dependent-effect
Activity (Mus musculus [25]): Active; Displayed Similar Effect With That Exhibited By Alendronate
inhibition (BMDM [26]): Dose-dependent-effect
inhibition (BMDM [27]): Dose-dependent-effect
Kd [28]: 920 nM
